Values after ≈ are worked out from the molar mass of the structure shown.
Columns and labels:
Format in all cases: functional
[1] = test system: Staphylococcus aureus; test: Antibacterial activity against Staphylococcus aureus at 25 ug/ml after 24 hrs by agar well diffusion method; conditions: read-out: DIZ
[2] = test system: Staphylococcus aureus; test: Antibacterial activity against Staphylococcus aureus at 50 ug/ml after 24 hrs by agar well diffusion method; conditions: read-out: DIZ
[3] = test system: Staphylococcus aureus; test: Antibacterial activity against Staphylococcus aureus at 75 ug/ml after 24 hrs by agar well diffusion method; conditions: read-out: DIZ
[4] = test system: Staphylococcus aureus; test: Antibacterial activity against Staphylococcus aureus at 100 ug/ml after 24 hrs by agar well diffusion method; conditions: read-out: DIZ
[5] = test system: Bacillus subtilis; test: Antibacterial activity against Bacillus subtilis at 25 ug/ml after 24 hrs by agar well diffusion method; conditions: read-out: DIZ
[6] = test system: Bacillus subtilis; test: Antibacterial activity against Bacillus subtilis at 50 ug/ml after 24 hrs by agar well diffusion method; conditions: read-out: DIZ
[7] = test system: Bacillus subtilis; test: Antibacterial activity against Bacillus subtilis at 75 ug/ml after 24 hrs by agar well diffusion method; conditions: read-out: DIZ
[8] = test system: Bacillus subtilis; test: Antibacterial activity against Bacillus subtilis at 100 ug/ml after 24 hrs by agar well diffusion method; conditions: read-out: DIZ
[9] = test system: Escherichia coli; test: Antibacterial activity against Escherichia coli at 25 ug/ml after 24 hrs by agar well diffusion method; conditions: read-out: DIZ
[10] = test system: Escherichia coli; test: Antibacterial activity against Escherichia coli at 50 ug/ml after 24 hrs by agar well diffusion method; conditions: read-out: DIZ
[11] = test system: Escherichia coli; test: Antibacterial activity against Escherichia coli at 75 ug/ml after 24 hrs by agar well diffusion method; conditions: read-out: DIZ
[12] = test system: Escherichia coli; test: Antibacterial activity against Escherichia coli at 100 ug/ml after 24 hrs by agar well diffusion method; conditions: read-out: DIZ
[13] = test system: Klebsiella pneumoniae; test: Antibacterial activity against Klebsiella pneumoniae at 25 ug/ml after 24 hrs by agar well diffusion method; conditions: read-out: DIZ
[14] = test system: Klebsiella pneumoniae; test: Antibacterial activity against Klebsiella pneumoniae at 50 ug/ml after 24 hrs by agar well diffusion method; conditions: read-out: DIZ
[15] = test system: Klebsiella pneumoniae; test: Antibacterial activity against Klebsiella pneumoniae at 75 ug/ml after 24 hrs by agar well diffusion method; conditions: read-out: DIZ
[16] = test system: Klebsiella pneumoniae; test: Antibacterial activity against Klebsiella pneumoniae at 100 ug/ml after 24 hrs by agar well diffusion method; conditions: read-out: DIZ
[17] = test system: Staphylococcus aureus; test: Antibacterial activity against methicillin resistant Staphylococcus aureus MRSA090 at 25 ug/ml after 24 hrs by agar well diffusion method; conditions: MRSA090, 24 h, read-out: DIZ
[18] = test system: Staphylococcus aureus; test: Antibacterial activity against methicillin resistant Staphylococcus aureus MRSA090 at 50 ug/ml after 24 hrs by agar well diffusion method; conditions: MRSA090, 24 h, read-out: DIZ
[19] = test system: Staphylococcus aureus; test: Antibacterial activity against methicillin resistant Staphylococcus aureus MRSA090 at 75 ug/ml after 24 hrs by agar well diffusion method; conditions: MRSA090, 24 h, read-out: DIZ
[20] = test system: Staphylococcus aureus; test: Antibacterial activity against methicillin resistant Staphylococcus aureus MRSA090 at 100 ug/ml after 24 hrs by agar well diffusion method; conditions: MRSA090, 24 h, read-out: DIZ
[21] = test system: Aspergillus niger; test: Antifungal activity against Aspergillus niger at 25 ug/ml after 48 hrs by agar well diffusion method; conditions: read-out: DIZ
[22] = test system: Aspergillus niger; test: Antifungal activity against Aspergillus niger at 50 ug/ml after 48 hrs by agar well diffusion method; conditions: read-out: DIZ
[23] = test system: Aspergillus niger; test: Antifungal activity against Aspergillus niger at 75 ug/ml after 48 hrs by agar well diffusion method; conditions: read-out: DIZ
[24] = test system: Aspergillus niger; test: Antifungal activity against Aspergillus niger at 100 ug/ml after 48 hrs by agar well diffusion method; conditions: read-out: DIZ
[25] = test system: Fusarium verticillioides; test: Antifungal activity against Fusarium moniliforme at 25 ug/ml after 48 hrs by agar well diffusion method; conditions: read-out: DIZ
[26] = test system: Fusarium verticillioides; test: Antifungal activity against Fusarium moniliforme at 50 ug/ml after 48 hrs by agar well diffusion method; conditions: read-out: DIZ
[27] = test system: Fusarium verticillioides; test: Antifungal activity against Fusarium moniliforme at 75 ug/ml after 48 hrs by agar well diffusion method; conditions: read-out: DIZ
[28] = test system: Fusarium verticillioides; test: Antifungal activity against Fusarium moniliforme at 100 ug/ml after 48 hrs by agar well diffusion method; conditions: read-out: DIZ
[29] = test system: Fusarium oxysporum; test: Antifungal activity against Fusarium oxysporum at 25 ug/ml after 48 hrs by agar well diffusion method; conditions: read-out: DIZ
[30] = test system: Fusarium oxysporum; test: Antifungal activity against Fusarium oxysporum at 50 ug/ml after 48 hrs by agar well diffusion method; conditions: read-out: DIZ
[31] = test system: Fusarium oxysporum; test: Antifungal activity against Fusarium oxysporum at 75 ug/ml after 48 hrs by agar well diffusion method; conditions: read-out: DIZ
[32] = test system: Fusarium oxysporum; test: Antifungal activity against Fusarium oxysporum at 100 ug/ml after 48 hrs by agar well diffusion method; conditions: read-out: DIZ
[33] = test system: Klebsiella pneumoniae; test: Antibacterial activity against Klebsiella pneumoniae incubated for overnight by microdilution method
[34] = test system: Staphylococcus aureus; test: Antibacterial activity against Staphylococcus aureus incubated for overnight by microdilution method
[35] = test system: Bacillus subtilis; test: Antibacterial activity against Bacillus subtilis incubated for overnight by microdilution method
[36] = test system: Escherichia coli; test: Antibacterial activity against Escherichia coli incubated for overnight by microdilution method
[37] = test system: Staphylococcus aureus; test: Antibacterial activity against methicillin resistant Staphylococcus aureus MRSA090 incubated for overnight by microdilution method
[38] = test system: Aspergillus niger; test: Antifungal activity against Aspergillus niger after 48 to 72 hrs by microdilution method
[39] = test system: Fusarium verticillioides; test: Antifungal activity against Fusarium moniliforme after 48 to 72 hrs by microdilution method
[40] = test system: Fusarium oxysporum; test: Antifungal activity against Fusarium oxysporum after 48 to 72 hrs by microdilution method

## Cc1cccc2nc(N/N=C/c3cccs3)sc12
[1]
  zone of inhibition at 25 µg/mL: 12 mm
[2]
  zone of inhibition at 50 µg/mL: 18 mm
[3]
  zone of inhibition at 75 µg/mL: 24 mm
[4]
  zone of inhibition at 100 µg/mL: 28 mm
[5]
  zone of inhibition at 25 µg/mL: 10 mm
[6]
  zone of inhibition at 50 µg/mL: 15 mm
[7]
  zone of inhibition at 75 µg/mL: 21 mm
[8]
  zone of inhibition at 100 µg/mL: 24 mm
[9]
  zone of inhibition at 25 µg/mL: 10 mm
[10]
  zone of inhibition at 50 µg/mL: 14 mm
[11]
  zone of inhibition at 75 µg/mL: 18 mm
[12]
  zone of inhibition at 100 µg/mL: 22 mm
[13]
  zone of inhibition at 25 µg/mL: 7 mm
[14]
  zone of inhibition at 50 µg/mL: 11 mm
[15]
  zone of inhibition at 75 µg/mL: 18 mm
[16]
  zone of inhibition at 100 µg/mL: 21 mm
[17]
  zone of inhibition at 25 µg/mL: 13 mm
[18]
  zone of inhibition at 50 µg/mL: 16 mm
[19]
  zone of inhibition at 75 µg/mL: 22 mm
[20]
  zone of inhibition at 100 µg/mL: 28 mm
[21]
  zone of inhibition at 25 µg/mL: 11 mm
[22]
  zone of inhibition at 50 µg/mL: 15 mm
[23]
  zone of inhibition at 75 µg/mL: 21 mm
[24]
  zone of inhibition at 100 µg/mL: 26 mm
[25]
  zone of inhibition at 25 µg/mL: 7 mm
[26]
  zone of inhibition at 50 µg/mL: 9 mm
[27]
  zone of inhibition at 75 µg/mL: 12 mm
[28]
  zone of inhibition at 100 µg/mL: 15 mm
[29]
  zone of inhibition at 25 µg/mL: 21 mm
[30]
  zone of inhibition at 50 µg/mL: 24 mm
[31]
  zone of inhibition at 75 µg/mL: 29 mm
[32]
  zone of inhibition at 100 µg/mL: 30 mm
[33]
  MIC: 26 µg/mL (≈ 95.1 µM)
[34]
  MIC: 32 µg/mL (≈ 117 µM)
[35]
  MIC: 26 µg/mL (≈ 95.1 µM)
[36]
  MIC: 35 µg/mL (≈ 128 µM)
[37]
  MIC: 20 µg/mL (≈ 73.2 µM)
[38]
  MIC: 30 µg/mL (≈ 110 µM)
[39]
  MIC: 28 µg/mL (≈ 102 µM)
[40]
  MIC: 23 µg/mL (≈ 84.1 µM)

Source: ChEMBL document CHEMBL4020788, “Synthesis, SAR and molecular docking studies of benzo[d]thiazole-hydrazones as potential antibacterial and antifungal agents” (2017)
